Values of other authors in US5229007A (priority 1992, dated 1993).

Key:
insect = settings: in vivo

C/C=C(\C)C(=O)O[C@H]1C[C@@H](OC(C)=O)[C@@]2(C(=O)OC)CO[C@H]3[C@@H](O)[C@@](C)([C@]45O[C@@]4(C)[C@H]4C[C@@H]5O[C@@H]5OC=C[C@@]54O)[C@H]4[C@]1(CO[C@]4(O)C(=O)OC)[C@@H]32 [azadirachtin]
insect growth regulator and feeding deterrent activity (insect): potent insect growth regulator and feeding deterrent
stability in alkaline solutions (alkaline solutions): degraded in alkaline solutions
stability at elevated temperatures (elevated temperatures): decomposes at elevated temperatures
